Reference: article PMC7744527, “The structure of SeviL, a GM1b/asialo-GM1 binding R-type lectin from the mussel Mytilisepta virgata” (Scientific Reports, 2020)
Changes are numbered by the printed parent chain. Names and notes keep the numbering of the source. Where two headings read alike, the source gives them in different places.

What was measured:
[1] = target: T1, SeviL (Mytilisepta virgata, UniProt A0A646QV53); assay: biochemical; type: binding
T1 construct: This vector directs expression of full-length SeviL carrying a thrombin-cleavable hexa-histidine tag; hexa-histidine tag (thrombin-cleavable; leaves residual GSH before the native Met) (N, cleaved yes); made in house; host or cells: E. coli BL21(DE3)
Procedure: (§1) Experimental details are given in Methods/Isothermal Titration Calorimetry. […] ITC experiments were repeated with the monomer mutant SeviL (Q12R/F126K). […] Errors in Kd for the native protein and monomer were determined from triplicate experiments. To produce a stronger signal and lower noise, further experiments were attempted with the concentrations of the native protein and ligand increased ten-fold. […] Different stereo views of the interaction between protein and ligand are shown in SFigure 11.
(§2) Figure 5 (A) A thermogram produced by injecting 1 mM asialo-GM1 saccharide into 50 μ M SeviL. The experiment was repeated three times, each thermogram being fitted to a one-site model (shown as a black line). Dissociation constants were calculated as weighted averages, and errors were calculated as weighted standard deviations, using the reciprocal chi-square values of each individual fit as weights.
Experiments were performed using a MicroCal iTC200 (GE) instrument. The sample of SeviL (in 50 mM phosphate buffer, pH 6.8, 0.1 M NaCl) was placed in the cell, and equilibrated at 298 K. The selected ligand was dissolved in the same buffer, and injected into the protein sample (with 20 injections of 10 μ L each), allowing the baseline to stabilise between injections. The data were analysed using the manufacturer’s software, assuming a simple single site model, to yield a Kd value and chi-square value from each experiment. […] Asialo-GM1 and GM1b were used at 1 mM concentration, each experiment being repeated three times, and errors were determined as the weighted standard deviation of these three values. Higher concentrations of protein and ligand were used in the case of these longer ligands.

[2] = target: T1, SeviL; details: 52 oligosaccharides; cited from earlier work
[3] = target: T2, SeviL (Q12R/F126K) (Mytilisepta virgata, UniProt A0A646QV53, F126K/Q12R); assay: Isothermal titration calorimetry with monomer mutant SeviL (Q12R/F126K); type: binding; details: 1 mM ligand titrated into 50 μM SeviL (Q12R/F126K), one-site model, triplicate
T2 construct: This vector directs expression of full-length SeviL carrying a thrombin-cleavable hexa-histidine tag; hexa-histidine tag (thrombin-cleavable); made in house; host or cells: E. coli BL21(DE3)
T2 sequence (A0A646QV53 whole entry Q12R/F126K): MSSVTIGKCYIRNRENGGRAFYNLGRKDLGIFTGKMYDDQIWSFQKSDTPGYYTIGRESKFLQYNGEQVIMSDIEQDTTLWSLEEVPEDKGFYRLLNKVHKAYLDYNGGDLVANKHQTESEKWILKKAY
Procedure: as §1, §2
Experiments were performed using a MicroCal iTC200 (GE) instrument. […] The data were analysed using the manufacturer’s software, assuming a simple single site model, to yield a Kd value and chi-square value from each experiment. […] Asialo-GM1 and GM1b were used at 1 mM concentration, each experiment being repeated three times, and errors were determined as the weighted standard deviation of these three values. […]

[4] = target: the molecule itself; assay: AUC; sedimentation velocity, 50,000 rpm, 293 K, 50 mM potassium phosphate pH 6.8, 0.1 M NaCl, absorbance at 280 nm, c(s)/c(M) analysis with SEDFIT; sample concentration printed as 1.0 ug/ml
[5] = test system: trypsinised and glutaraldehyde-fixed rabbit erythrocytes; assay: Hemagglutination assay; type: cell-based; details: 10 mM CaCl2, 0.25% Triton X-100, 1 h room temperature
Procedure: Figure 6 Hemagglutination of red blood cells by SeviL. 20 μ L of a two-fold dilution of SeviL (initially 10 mg/mL) were serially diluted and added to the same volume of a red cell suspension containing 0.25% Triton-X100 and 10 mM calcium chloride, and incubated for 1 h at room temperature. Appearance of a dot indicates no agglutination. The number over the wells indicates the protein dilution factor. Top row: dimer SeviL, middle row: dimer SeviL (D39H), and bottom row: monomer SeviL (Q12R/F126K). Column C is a negative control with no added lectin.
Hemagglutination assay was performed in 96-well U-shape plates as described previously. 20 μ L each protein (10 μ g/ml) in TBS was mixed with 20 μ L of a 1% suspension (with TBS; v/v) of trypsinised and glutaraldehyde-fixed rabbit erythrocytes in addition to 20 μ L of TBS containing 0.25% (w/v) Triton X-100 and 10 mM CaCl2. The plate was incubated at room temperature for 1 h, and the formation of a sheet (agglutination-positive) or dot (agglutination-negative) was observed and scored against the lectin titre.

[6] = test system: human red cells; set-up: method as in PMID 31769916; details: in the presence of calcium; cited from earlier work
[7] = test system: mammalian carcinoma cells expressing asialo-GM1; set-up: method as in PMID 31769916; details: cited from earlier work

## OC[C@H]1O[C@@H](O[C@H]2[C@H](O)[C@@H](O)C(O)O[C@@H]2CO)[C@H](O)[C@@H](O)[C@H]1O (mixture of isomers) [lactose]
[1]
  Kd: 8000 to 12000 µM

## OC[C@H]1OC(O)[C@H](O)[C@@H](O)[C@@H]1O (stereo partly drawn) [Glucose]
[1]; small sugar ligand
  interaction with the protein (ITC): not seen to interact with the protein at all

## CC(=O)NC1C(O)CC(OC2C(O)C(CO)OC(OC3C(O)C(CO)OC(OC4C(O)C(CO)OC(OC5C(CO)OC(OC6C(CO)OC(O)C(O)C6O)C(O)C5O)C4O)C3NC(C)=O)C2O)(C(=O)O)OC1C(O)C(O)CO (stereo not drawn) [SSEA-4, Neu5Ac α (2-3)Gal β (1-3)GalNAc β (1-3)Gal α (1-4)Gal β (1-4)Glc]
[2]
  binding in glycan array: weak binding

## CC(=O)N[C@H]1[C@H](O[C@@H]2[C@H](O)[C@@H](O)[C@H](O[C@H]3[C@H](O)[C@@H](O)C(O)O[C@@H]3CO)O[C@@H]2CO)O[C@H](CO)[C@H](O)[C@@H]1O[C@@H]1O[C@H](CO)[C@H](O)[C@H](O)[C@H]1O (stereo partly drawn) [asialo-GM1, Gal β (1-3)GalNAc β (1-4)Gal β (1-4)Glc]
[1]; 1 mM ligand injected into 50 μM SeviL, 298 K, pH 6.8, one-site model, triplicate, weighted average, read-out: Kd
  Kd: 100 µM
[1]; protein and ligand concentrations increased ten-fold (1 mM SeviL/10 mM asialo-GM1; 0.8 mM SeviL/12 mM GM1b), model of non-interacting sites, read-out: Kd (exothermic and endothermic binding site, each)
  Kd: ~100 µM
[3]
  Kd: 100 µM
[2]
  binding in glycan array: bind

B1: SeviL (natural protein, Mytilisepta virgata)
chain: MSSVTIGKCYIQNRENGGRAFYNLGRKDLGIFTGKMYDDQIWSFQKSDTPGYYTIGRESKFLQYNGEQVIMSDIEQDTTLWSLEEVPEDKGFYRLLNKVHKAYLDYNGGDLVANKHQTESEKWILFKAY
notes: some N-terminal residues remain after removal of the histidine tag by thrombin; also called recombinant SeviL; wild-type SeviL; source: recombinant, expressed in bacteria, purified (details in Supplementary Information); not shown: histidine tag, N-terminal, cleaved
[4]
  stoichiometry N: 2

B2: SeviL (Q12R/F126K): SeviL double mutant at the dimer interface, almost entirely monomeric, retains sugar binding (protein)
chain: B1 chain with Q12R, F126K
modifications: left off: histidine tag, N-terminal, cleaved
[5]
  hemagglutination: Hemagglutination is also lost

B3: SeviL: recombinant 129 residue dimeric β-trefoil R-type lectin from the mussel Mytilisepta virgata (protein)
chain: B1 chain
modifications: left off: histidine tag, N-terminal, cleaved
notes: recombinant 129 residue dimeric β-trefoil R-type lectin from the mussel Mytilisepta virgata
[6]
  hemagglutination: cause hemagglutination
[7]
  effect on carcinoma cells: activates apoptotic pathways, causing cell death
[5]
  hemagglutination: can trigger hemagglutination at low concentration
